The values below are quoted from earlier work in US20090028935A1, “CARVEDILOL FORMS, COMPOSITIONS, AND METHODS OF PREPARATION THEREOF” (priority 2006, published 2009).

The structures appear in SMILES notation. Entries after “also recorded” stand apart in the source; their conditions may differ. Read-outs that look alike come from different tables or passages of the source.

The conditions of the series: background statement.

For `COc1ccccc1OCCNCC(O)COc1cccc2[nH]c3ccccc3c12` (racemic) [Carvedilol, (±)-1-(carbazol-4-yloxy)-3-[[2-(o-methoxyphenoxy)ethyl]amino]-2-propanol], the aqueous solubility result is recorded as “low solubility in aqueous media, especially in media of increasingly basic pH; also recorded: limited aqueous solubility, especially in basic aqueous media”. Also, for the setting “listed as carvedilol”, the aqueous solubility entry was “pH dependent solubility with significantly lower solubility in the lower gastrointestinal tract”.
